Results from patent publication US20260207602A1, “EGFR INHIBITORS” (Blueprint Medicines Corporation, priority 2022, published 2026).

Columns and labels:
EGFR L858R = biological target: T1, EGFR L858R (Homo sapiens, UniProt P00533, L858R); test: Biochemical EGFR inhibition assay (Caliper mobility shift), EGFR L858R; conditions: biochemical Caliper mobility shift assay, EGFR L858R enzyme; read-out: Enz EGFR L858R IC50
T1 construct: purchased SignalChem E10-122BG
In short: (§1)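 Peptide phosphorylation by the mutant enzyme is followed at 25 °C with either 1.0 mM ATP or ATP at Km, in HEPES pH 7.5 containing 0.015% Brij-35 and 1.0% DMSO. After 10–20% substrate turnover, 35 mM EDTA ends the reaction and mobility shift quantifies product.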

EGFR (d746-750) = biological target: T2, EGFR (d746-750) (Homo sapiens, UniProt P00533, DEL746-750); test: Biochemical EGFR inhibition assay (Caliper mobility shift), EGFR (d746-750); conditions: biochemical Caliper mobility shift assay, EGFR Exon 19-del enzyme; read-out: Enz EGFR Exon 19-del IC50
T2 construct: purchased SignalChem E10-122JG
T2 sequence (P00533 with tags, fused parts or gaps DEL746-750 limits assumed): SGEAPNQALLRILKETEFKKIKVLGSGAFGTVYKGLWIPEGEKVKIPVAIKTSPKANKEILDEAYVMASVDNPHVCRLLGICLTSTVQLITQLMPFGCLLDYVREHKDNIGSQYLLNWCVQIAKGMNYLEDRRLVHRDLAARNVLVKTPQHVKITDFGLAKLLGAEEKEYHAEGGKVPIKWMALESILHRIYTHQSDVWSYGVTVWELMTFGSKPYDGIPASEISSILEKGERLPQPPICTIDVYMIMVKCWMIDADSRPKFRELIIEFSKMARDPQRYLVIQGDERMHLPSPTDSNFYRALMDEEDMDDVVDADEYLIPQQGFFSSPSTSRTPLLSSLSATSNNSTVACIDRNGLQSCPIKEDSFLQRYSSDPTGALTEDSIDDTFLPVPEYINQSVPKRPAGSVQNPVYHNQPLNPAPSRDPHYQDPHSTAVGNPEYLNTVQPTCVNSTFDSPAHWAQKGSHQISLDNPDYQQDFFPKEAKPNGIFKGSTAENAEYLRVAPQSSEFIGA
In short: as §1

[1] = biological target: intracellular phosphorylation of EGFR (Tyr1068) in PC-9 cells (Homo sapiens, UniProt P00533, DEL746-750); test: PC-9 pEGFR AlphaLISA assay; format: cell-based; conditions: 4 hours incubation, read-out: Phos EGFR PC9 IC50
Chain of intracellular phosphorylation of EGFR (Tyr1068) in PC-9 cells (P00533 with tags, fused parts or gaps DEL746-750): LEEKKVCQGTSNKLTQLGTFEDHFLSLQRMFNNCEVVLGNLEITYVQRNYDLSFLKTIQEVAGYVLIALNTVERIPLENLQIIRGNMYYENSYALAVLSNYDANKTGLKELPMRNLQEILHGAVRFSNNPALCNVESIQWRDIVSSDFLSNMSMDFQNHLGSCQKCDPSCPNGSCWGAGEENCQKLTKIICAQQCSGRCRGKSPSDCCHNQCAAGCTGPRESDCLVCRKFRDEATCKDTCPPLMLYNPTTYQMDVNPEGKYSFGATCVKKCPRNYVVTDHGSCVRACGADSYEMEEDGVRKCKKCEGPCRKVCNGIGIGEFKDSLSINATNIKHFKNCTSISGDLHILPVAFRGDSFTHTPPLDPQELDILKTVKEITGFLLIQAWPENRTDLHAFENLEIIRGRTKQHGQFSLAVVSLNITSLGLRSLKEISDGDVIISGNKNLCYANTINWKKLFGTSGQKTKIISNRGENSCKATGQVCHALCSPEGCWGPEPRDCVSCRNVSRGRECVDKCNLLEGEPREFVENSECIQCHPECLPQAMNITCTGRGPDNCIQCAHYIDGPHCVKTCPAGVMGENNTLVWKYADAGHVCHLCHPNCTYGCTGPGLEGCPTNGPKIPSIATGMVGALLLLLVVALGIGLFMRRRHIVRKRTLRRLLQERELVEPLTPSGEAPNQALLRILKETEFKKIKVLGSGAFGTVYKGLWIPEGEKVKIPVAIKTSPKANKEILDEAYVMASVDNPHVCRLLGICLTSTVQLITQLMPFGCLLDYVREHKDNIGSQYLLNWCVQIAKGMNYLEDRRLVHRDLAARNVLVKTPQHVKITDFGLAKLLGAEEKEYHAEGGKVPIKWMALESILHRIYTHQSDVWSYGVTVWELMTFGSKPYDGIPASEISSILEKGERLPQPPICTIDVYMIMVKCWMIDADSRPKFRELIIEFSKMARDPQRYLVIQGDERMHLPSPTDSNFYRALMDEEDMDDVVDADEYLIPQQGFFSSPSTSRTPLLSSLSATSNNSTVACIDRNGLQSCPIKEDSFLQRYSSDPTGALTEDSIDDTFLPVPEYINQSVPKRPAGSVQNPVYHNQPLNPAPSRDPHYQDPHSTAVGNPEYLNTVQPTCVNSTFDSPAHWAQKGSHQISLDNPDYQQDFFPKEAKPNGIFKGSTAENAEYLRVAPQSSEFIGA
In short: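 PC-9 cells (EGFR del746-750) in phenol-free DMEM/10% FBS, adhered overnight, then exposed to 10-point 4-fold compound dilutions for 4 h at 37 °C. Lysates assayed for pEGFR Tyr1068 by AlphaLISA SureFire Ultra; IC50 from percent pEGFR inhibition vs log concentration.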

T1 sequence (P00533 25-1210 L858R): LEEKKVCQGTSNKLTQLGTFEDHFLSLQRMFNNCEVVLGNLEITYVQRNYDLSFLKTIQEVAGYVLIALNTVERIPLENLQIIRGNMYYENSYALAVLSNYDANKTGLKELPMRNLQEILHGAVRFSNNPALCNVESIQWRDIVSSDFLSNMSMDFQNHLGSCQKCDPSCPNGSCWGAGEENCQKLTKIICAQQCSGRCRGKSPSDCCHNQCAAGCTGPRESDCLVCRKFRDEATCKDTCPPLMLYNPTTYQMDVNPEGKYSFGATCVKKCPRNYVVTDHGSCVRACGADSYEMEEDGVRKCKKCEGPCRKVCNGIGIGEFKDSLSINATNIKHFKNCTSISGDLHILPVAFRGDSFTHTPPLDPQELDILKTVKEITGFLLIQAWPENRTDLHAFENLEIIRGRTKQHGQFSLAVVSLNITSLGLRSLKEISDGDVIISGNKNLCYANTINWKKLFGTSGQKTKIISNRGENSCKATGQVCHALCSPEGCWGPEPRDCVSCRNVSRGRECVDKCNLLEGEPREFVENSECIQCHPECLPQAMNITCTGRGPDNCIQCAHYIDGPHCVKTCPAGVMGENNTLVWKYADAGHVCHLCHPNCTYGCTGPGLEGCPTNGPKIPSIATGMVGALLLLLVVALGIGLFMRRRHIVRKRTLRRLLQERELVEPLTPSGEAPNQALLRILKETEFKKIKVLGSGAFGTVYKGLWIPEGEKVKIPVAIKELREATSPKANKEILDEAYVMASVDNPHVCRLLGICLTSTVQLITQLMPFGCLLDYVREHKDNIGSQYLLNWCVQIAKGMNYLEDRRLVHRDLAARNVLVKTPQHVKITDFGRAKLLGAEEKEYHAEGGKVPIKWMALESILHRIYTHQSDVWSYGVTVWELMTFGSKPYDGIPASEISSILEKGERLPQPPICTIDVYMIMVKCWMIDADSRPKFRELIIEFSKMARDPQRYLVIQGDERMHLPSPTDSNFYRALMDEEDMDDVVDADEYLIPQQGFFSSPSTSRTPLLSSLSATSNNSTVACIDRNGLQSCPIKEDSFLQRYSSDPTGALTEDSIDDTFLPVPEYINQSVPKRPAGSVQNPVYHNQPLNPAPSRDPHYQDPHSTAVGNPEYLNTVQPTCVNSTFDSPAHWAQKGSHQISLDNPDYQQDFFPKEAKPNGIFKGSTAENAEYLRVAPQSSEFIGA

Compound | IC50 (EGFR L858R) [nM] | IC50 (EGFR (d746-750)) [nM] | IC50 [1] [nM]
COCCN1CCC(Oc2cc(-c3cnn(C)c3)cc3ncnc(Nc4ccc5ncsc5c4F)c23)CC1 [Example 316, 7-fluoro-N-(5-((1-(2-methoxyethyl)piperidin-4-yl)oxy)-7-(1-methyl-1H-pyrazol-4-yl)quinazolin-4-yl)benzo[d]thiazol-6-amine] | 10.1 to 50 | ≤ 10 | 10.1 to 50
COc1cc2c(Nc3ccc4ncsc4c3F)ncnc2cc1-c1cn(C)nc1OC [Example 264, 7-fluoro-N-(6-methoxy-7-(3-methoxy-1-methyl-1H-pyrazol-4-yl)quinazolin-4-yl)benzo[d]thiazol-6-amine] | ≤ 10 | ≤ 10 | 10.1 to 50
CN1CC[C@@H](Nc2cc3c(Nc4ccc5ncsc5c4)ncnc3cc2-c2cnn(C)c2)[C@H](F)C1 (single isomer, unassigned) [Example 325] | 10.1 to 50 | ≤ 10 | > 50.1
C[C@@H]1CN(C)CCN1C(=O)Nc1cc2c(Nc3ccc4ncsc4c3)ncnc2cc1-c1ccn(C)n1 [Example 255, (R)-N-(4-(benzo[d]thiazol-6-ylamino)-7-(1-methyl-1H-pyrazol-3-yl)quinazolin-6-yl)-2,4-dimethylpiperazine-1-carboxamide] | ≤ 10 | ≤ 10 | ≤ 10
CO[C@H]1COC[C@@H]1Oc1cc(-c2cnn(C)c2)cc2ncnc(Nc3ccc4ncsc4c3)c12 (single isomer, unassigned) [Example A31] | ≤ 10 | ≤ 10 | 10.1 to 50
C[C@@H]1CN(c2cc(O[C@H](C)C3COC3)c3c(Nc4ccc5ncsc5c4F)ncnc3c2)CCN1C (single isomer, unassigned) [Example 103] | 10.1 to 50 | ≤ 10 | ≤ 10
CN1CCC[C@H](Oc2cc(-c3cn(C)nc3OC(F)F)cc3ncnc(Nc4ccc5ncsc5c4)c23)C1 [Example 248, (S)-N-(7-(3-(difluoromethoxy)-1-methyl-1H-pyrazol-4-yl)-5-((1-methylpiperidin-3-yl)oxy)quinazolin-4-yl)benzo[d]thiazol-6-amine] | 10.1 to 50 | ≤ 10 | 10.1 to 50
Cn1cc(-c2cc(OC3CCCOC3)c3c(Nc4ccc5ncsc5c4)ncnc3c2)cn1 (single isomer, unassigned) [Example 6] | ≤ 10 | ≤ 10 | ≤ 10

More lines, now with the values ahead:

IC50 (EGFR L858R) [nM] | IC50 (EGFR (d746-750)) [nM] | IC50 [1] [nM] | Compound
≤ 10 | ≤ 10 | ≤ 10 | Cn1cc(-c2cc(O[C@H]3C[C@@H](O)C3)c3c(Nc4ccc5ncsc5c4)ncnc3c2)cn1 [Example 20, cis-3-((4-(benzo[d]thiazol-6-ylamino)-7-(1-methyl-1H-pyrazol-4-yl)quinazolin-5-yl)oxy)cyclobutan-1-ol]
≤ 10 | ≤ 10 | ≤ 10 | C[C@@H](Oc1cc(-c2cnn(C)c2)cc2ncnc(Nc3ccc4ncsc4c3)c12)C1CN(C)C1 (single isomer, unassigned) [Example 385]
≤ 10 | ≤ 10 | ≤ 10 | Cn1cc(-c2cc(O[C@@H]3CNC[C@H](F)C3)c3c(Nc4ccc5ncsc5c4)ncnc3c2)cn1 (single isomer, unassigned) [Example 335]
≤ 10 | ≤ 10 | ≤ 10 | COc1nn(C)cc1-c1cc(O[C@H](C)C2COC2)c2c(Nc3ccc4ncsc4c3F)ncnc2c1 (single isomer, unassigned) [Example 78]
≤ 10 | ≤ 10 | 10.1 to 50 | COCCN1CCC(Oc2cc(-c3cnn(C)c3)cc3ncnc(Nc4ccc5ncsc5c4)c23)CC1 [Example 313, N-(5-((1-(2-methoxyethyl)piperidin-4-yl)oxy)-7-(1-methyl-1H-pyrazol-4-yl)quinazolin-4-yl)benzo[d]thiazol-6-amine]
≤ 10 | ≤ 10 | ≤ 10 | COCCOc1cc(O[C@H](C)C2COC2)c2c(Nc3ccc4ncsc4c3)ncnc2c1 [Example 126, (R)-N-(7-(2-methoxyethoxy)-5-(1-(oxetan-3-yl)ethoxy)quinazolin-4-yl)benzo[d]thiazol-6-amine]
